From US11596716B2, “Compounds and matrices for use in bone growth and repair” (Human BioMolecular Research Institute, priority 2013, dated 2023)
Where “and” joins values, the source holds several entries; their conditions need not be identical. Equal entries are not always repeated.

Key:
[1] = tested on: nude, immunodeficient Bg-Nu-XID female mice; experiment: Intramuscular osteoinduction: implants in biceps femoris of immunodeficient mice, histology after 8 weeks; format: in vivo
Protocol: Mice were divided into groups according to the experimental design: i) uninduced hMSCs that were treated with vehicle alone (i.e., 0.1% DMSO, final concentration) for 8 days then combined with TCP ceramic matrix, and ii) induced hMSCs that were treated with 3 (500 nM) in the presence of TCP ceramic matrix (5 mg/mL) for 8 days, and iii) TCP ceramic matrix (i.e. no cells) mock cultured for 8 days. The TCP ceramic matrix used was […] granules. […] MEM medium was added to existing PBS (pH 6.5) cell incubations to effect a 500 nM final concentration.
Isolation of Compound-Induced hMSCs and their Cryopreservation (FIG. 5, Steps 4-5). At the end of an 8-day cell culture period, the cells were washed three times with 1 ml PBS (50 mM, pH 7.4), and removed from the 6-well plate by trypsinization. For induced cells, the TCP granules that remained on the plate were retained. After three washes with PBS (50 mM, pH 7.4), cells were centrifuged at 1200× g for 3 min. The cell pellet was recombined with TCP ceramic taken from cell culture and the mixture was suspended in 1 mL freezing medium (MEM essential containing 20% FBS and 5% DMSO). Before cryopreservation of the cell-TCP mixture in liquid nitrogen, a 10 μl aliquot of each sample was taken and used to count the cells, or to confirm ALP functional activity and mRNA biomarker expression (i.e., Osteocalcin, Collagen I) in advance of implantation.
Preparation of Implants for Surgery (FIG. 5, Steps i and ii). On the day of surgery, implants comprised of either i) TCP ceramic matrix, ii) hMSCs (0.5 million) and 5 mg TCP ceramic matrix, or iii) compound-induced hMSCs (0.5 million) and 5 mg TCP ceramic matrix were prepared for transplantation. Frozen cell/ceramic suspensions were thawed and washed three times with PBS (50 mM, pH 7.4). All implants were combined with a bioadhesive just prior to implantation in mice. […]
Surgical Implantation of Compositions of the Invention (FIG. 5, Step iii). […] Mice were monitored throughout surgery and thereafter for maintenance of the surgical plane of anesthesia. […]

[2] = tested on: hMSCs; experiment: qPCR of target gene mRNA expression in hMSCs; format: cell-based, human
Protocol: qPCR detection of osteogenic markers: Cells were cultured with compound in the presence or absence of matrix as described above, but using 96-well plate format. Total RNA was extracted from cells (as above) using Trizol. cDNA was made using 750 ng of total RNA with Bio-Rad iscript kit and was diluted 20-fold before being used for qPCR. qPCR was conducted under the following conditions: 95° C., 2 min; 95° C., 10 s and 60° C., 45 s for 40 cycles; 60° C. for 71 cycles for melt curve. qPCR results were analyzed by the ΔΔCt method. 18s rRNA was used as an internal standard. This protocol was applied to hMSC and E15 cells.
Runx2 and BMP-2 are osteogenic markers; Axin2, Wnt3a, and Sox 9 are Wnt-inducible gene markers.
The assay for mRNA expression followed the same procedure with hMSCs as described for C2C12 cells (Example 7).

[3] = tested on: cells released from demineralized allogeneic bone chips; experiment: Allograft-derived cells cultured with compound and TCP matrix; format: cell-based; details: 500 nM, TCP matrix 5 mg/mL, 8 days
Protocol: Demineralized allogeneic bone chips were thawed at 37° C. quickly with gentle agitation, washed with Dulbecco's PBS (DPBS) and centrifuged at 600×g for 5 min at room temperature. The material was digested with a collagenase and the mixture was filtered through a 100 µm cell strainer and the remaining bone fragments were rinsed with DPBS. The released cells were centrifuged at 1,200× rpm for 5 min at room temperature, resuspended and plated in 10 mL α-MEM media plus 20% FBS plus 1×Glutmax. After three days at 37° C. and 5% CO2, the TCP matrix (5 mg/mL) was added followed by compound 1 (500 nM) (or other compounds of Formula II, IV or VI) and the cell culture media was replaced every two days with fresh media-containing compound for 8 days. Cells were harvested after 8 days for determination of ALP activity, osteogenic mRNA biomarkers (i.e., VDR and collagen I, and cell proliferation. Cell proliferation increased 2.5-fold. VDR and collagen/mRNA expression increased 4.5-fold and 2.2-fold, respectively. Similar to isolated hMSCs in the presence of matrix, allograft-derived cells also respond to the presence of compounds and matrix to afford osteogenesis. The cells can be used in implantation as described in Examples 19 and 20.

[4] = implants of hMSCs induced 8 days with compound (500 nM) and TCP ceramic matrix, intramuscular, mice, 8 weeks
[5] = compound 500 nM, matrix 5 mg/mL, 3 days

CC(C)[C@H](N)C(=O)Oc1ccc(C=CC(=O)C=C(O)C=Cc2ccc(OC(=O)[C@@H](N)C(C)C)cc2)cc1 [Compound 3, (2S,2′S)—O,O′-(3-hydroxy-5-oxohepta-1,3,6-triene-1,7-diyl)bis(4,1-phenylene) bis(2-amino-3-methylbutanoate)]
osteoid score (0-4), median and 75th percentile, versus non-induced hMSCs on TCP matrix or TCP matrix alone ([1]; blinded observers, H&E sections, 8 weeks post-implantation): significantly (p<0.005) higher | osteoid in the ROI relative to implants comprised of TCP alone (densitometry) [1, 4]: 2.1 fold | osteoid in the ROI relative to implants of non-induced hMSCs and TCP ceramic matrix (densitometry) [1, 4]: 1.3 fold | Collagen 1 mRNA Fold-Change +/− SD, −matrix ([2]; 500 nM, 8 days): 1.5 fold and 1.5 ± 0.2 fold | Osteocalcin mRNA Fold-Change +/− SD, −matrix ([2]; 500 nM, 8 days): 0.5 ± 0.1 fold | VDR mRNA Fold-Change +/− SD, −matrix ([2]; 500 nM, 8 days): 5.0 ± 0.5 fold | decrease of Sox9 expression ([2]; 500 nM, matrix 5 mg/mL, 3 days): 40% | decrease of Wnt repressor gene Axin2 expression ([2]; 500 nM, matrix 5 mg/mL, 3 days): 80% | ALP mRNA Fold-Change +/− SD, +matrix ([2]; 500 nM, matrix 5 mg/mL, 8 days): 55 fold and 55.0 ± 5.0 fold | Collagen 1 mRNA Fold-Change +/− SD, +matrix ([2]; 500 nM, matrix 5 mg/mL, 8 days): 1.8 ± 0.2 fold | Osteocalcin mRNA Fold-Change +/− SD, +matrix ([2]; 500 nM, matrix 5 mg/mL, 8 days): 5.2 ± 0.5 fold | VDR mRNA Fold-Change +/− SD, +matrix ([2]; 500 nM, matrix 5 mg/mL, 8 days): 45 fold and 45.0 ± 5.0 fold | BMP-2 mRNA fold-changes +/− SD, −matrix ([2]; compound 500 nM, 3 days): 2.6 ± 0.2 fold | Runx2 mRNA fold-changes +/− SD, −matrix ([2]; compound 500 nM, 3 days): 101.3 ± 10.0 fold | Sox9 mRNA fold-changes +/− SD, −matrix ([2]; compound 500 nM, 3 days): 0.1 ± 0.01 fold | Wnt3a mRNA fold-changes +/− SD, −matrix ([2]; compound 500 nM, 3 days): 1 ± 0.1 fold | Wnt5a mRNA fold-changes +/− SD, −matrix ([2]; compound 500 nM, 3 days): 1 ± 0.1 fold | Axin2 mRNA fold-changes +/− SD, +matrix [2, 5]: 0.2 ± 0.02 fold | BMP-2 mRNA fold-changes +/− SD, +matrix [2, 5]: 7.5 fold and 7.5 ± 0.7 fold | Runx2 mRNA fold-changes +/− SD, +matrix [2, 5]: 8.2 fold and 8.2 ± 0.8 fold | Sox9 mRNA fold-changes +/− SD, +matrix [2, 5]: 0.6 ± 0.1 fold | Wnt3a mRNA fold-changes +/− SD, +matrix [2, 5]: 82.4 fold and 82.4 ± 8.0 fold | Wnt5a mRNA fold-changes +/− SD, +matrix [2, 5]: 6.3 fold and 6.3 ± 0.6 fold

CC(=O)N1c2ccc(C)cc2[C@H](Nc2ccc(C)cc2)C[C@@H]1C (relative stereo) [Compound 1, cis-1-acetyl-2,6-dimethyl-N-(p-methylphenyl)-1,2,3,4-tetrahydroquinolin-4-amine]
Cell proliferation increase [3]: 2.5 fold | VDR mRNA expression increase [3]: 4.5 fold | collagen/mRNA expression increase [3]: 2.2 fold
